Test results reported in US8992932B2, “Binder-drug conjugates (ADCs) and use thereof” (Seattle Genetics, Inc., priority 2011, dated 2015).
Several values for one entry are separate records, joined by “and”; a condition that tells them apart may be missing. Equal values may be shown once. Where a name gives a salt, the structure may show the parent alone. Square brackets hold non-standard residues; d marks the D form. Peptide text beside a SMILES is read from it. * marks the point of attachment. X2 = CC(C)[C@@H](C(=O)*)N(C)CCCCCCN1C(=O)CC(SC[C@H](N)C(=O)O)C1=O; X3 = CC(C)[C@@H](C(=O)*)N(C)CCOCCOCCOCCC(=O)NCCCC[C@H](N)C(=O)O; X1 = CC(C)[C@@H](C(=O)*)N(C)CCCCCC(=O)NCCCC[C@H](N)C(=O)O; Dolaproine = CO[C@@H]([C@@H]1CCCN1)[C@@H](C)C(=O)O; Dil = CC[C@H](C)[C@H](NC)[C@@H](CC(=O)O)OC; Oxazinan2yl(1,2) = C1CCN(*)OC1; NMeV = CN[C@H](C(=O)O)C(C)C

Tested on: tubulin
Experiment: Fluorescence-based microtubule polymerisation assay (DAPI)
Type: biochemical
Settings: not given
Method: Tubulin polymerization was investigated using the “Fluorescence-based Microtubule Polymerisation Assay Kit” from Cytoskeleton (Denver, Colo., USA; order number: BK011). With this assay, GTP is added to unpolymerized tubulin, allowing polymerization to take place spontaneously. The assay is based on the binding of the fluorophore 4′,6-diamidino-2-phenylindole (DAPI) to tubulin. Free and bound DAPI can be differentiated on the basis of different emission spectra.
[…] In addition to the buffer control, paclitaxel, with a polymerization-increasing effect, and vinblastin, with a polymerization inhibiting effect, were run additionally as assay controls. Measurement was carried out using 96-well plates with a half base area. The kinetics of the tubulin polymerization were monitored in a Fluorimeter at 37° C. for 1 hour. The excitation wavelength was 355 nm, and emission was monitored at 460 nm. For the region of linear increase within the first 10 minutes, a calculation was made of the change in fluorescence per minute (AF/min), which represents the polymerization rate of the microtubuli. The potency of the test substances was quantified on the basis of their respective reduction of the polymerization rate.

For `CC[C@H](C)[C@@H]([C@@H](CC(=O)N1CCC[C@H]1[C@H](OC)[C@@H](C)C(=O)N[C@@H](Cc1ccccc1)C(=O)O)OC)N(C)C(=O)[C@@H](NC(=O)[C@@H](NC)C(C)C)C(C)C` [MMAF, monomethylauristatin F, reference compound] (H-[NMeV]V[Dil][Dolaproine]F-OH), the “Effect on tubulin polymerization (in words)” value was “inhibit tubulin polymerization as a function of their concentration”.

Same assay, conditions: toxophore 1 μM; trifluoroacetate

With `CC[C@H](C)[C@@H]([C@@H](CC(=O)N1CCC[C@H]1[C@H](OC)[C@@H](C)C(=O)N[C@@H](Cc1c[nH]c2ccccc12)C(=O)N1CCCCO1)OC)N(C)C(=O)[C@@H](NC(=O)[C@H](C(C)C)N(C)CCOCCOCCOCCC(=O)NCCCC[C@H](N)C(=O)O)C(C)C` [Example 117, N-[(18S)-18-Amino-18-carboxy-12-oxo-3,6,9-trioxa-13-azaoctadec-1-yl]-N-methyl-L-valyl-N-[(3R,4S,5S)-1-{(2S)-2-[(1R,2R)-3-{[(2S)-3-(1H-indol-3-yl)-1-(1,2-oxazinan-2-yl)-1-oxopropan-2-yl]amino}-1-methoxy-2-methyl-3-oxopropyl]pyrrolidin-1-yl}-3-methoxy-5-methyl-1-oxoheptan-4-yl]-N-methyl-L-valinamide trifluoroacetate] (X3-V[Dil][Dolaproine]W-{Oxazinan2yl(1,2)}) the “Tubulin polymerization in the presence of toxophore in [%]. Tubulin polymerization rate at 1 μM MMAF set at 100%” value was 60% and 78%.

Tested on: Caco-2 cells
Experiment: Cell permeability flux assay using Caco-2 cells
Type: in vitro ADME
Settings: basal to apical, 2 hours
Method: The cell permeability of a substance can be investigated by means of in vitro testing in a flux assay using Caco-2 cells [M. D. Troutman and D R Thakker, Pharm. Res. 20 (8), 1210-1224 (2003)]. For this purpose, the cells were cultured for 15-16 days on 24-well filter plates. For the determination of permeation, the respective working example was applied in a HEPES buffer to the cells either apically (A) or basally (B) and incubated for 2 hours. After 0 hours and after 2 hours, samples were taken from the cis and trans compartments. The samples were separated by HPLC (Agilent 1200, Boblingen, Germany) using reverse phase columns. The HPLC system was coupled via a Turbo Ion Spray Interface to a Triple Quadropol mass spectrometer API 4000 (Applied Biosystems Applera, Darmstadt, Germany). The permeability was evaluated on the basis of a Papp value, which was calculated using the formula published by Schwab et al. [D. Schwab et al., J. Med. Chem. 46, 1716-1725 (2003)].

`CC[C@H](C)[C@@H]([C@@H](CC(=O)N1CCC[C@H]1[C@H](OC)[C@@H](C)C(=O)N[C@@H](Cc1c[nH]c2ccccc12)C(=O)O)OC)N(C)C(=O)[C@@H](NC(=O)[C@H](C(C)C)N(C)CCCC(=O)NNC(=O)CCCCCN1C(=O)CC(SC[C@H](N)C(=O)O)C1=O)C(C)C` (stereo partly drawn) [Example 72, N-(4-{2-[6-(3-{[(2R)-2-Amino-2-carboxyethyl]sulphanyl}-2,5-dioxopyrrolidin-1-yl)hexanoyl]hydrazino}-4-oxobutyl)-N-methyl-L-valyl-N-[(3R,4S,5S)-1-{(2S)-2-[(1R,2R)-3-{[(1S)-1-carboxy-2-(1H-indol-3-yl)ethyl]amino}-1-methoxy-2-methyl-3-oxopropyl]pyrrolidin-1-yl}-3-methoxy-5-methyl-1-oxoheptan-4-yl]-N-methyl-L-valinamide] and `CC[C@H](C)[C@@H]([C@@H](CC(=O)N1CCC[C@H]1[C@H](OC)[C@@H](C)C(=O)N[C@@H](Cc1c[nH]c2ccccc12)C(N)=O)OC)N(C)C(=O)[C@@H](NC(=O)[C@H](C(C)C)N(C)CCCC(=O)NNC(=O)CCCCCN1C(=O)CC(SC[C@H](N)C(=O)O)C1=O)C(C)C` (stereo partly drawn) [Example 71, N-(4-{2-[6-(3-{[(2R)-2-Amino-2-carboxyethyl]sulphanyl}-2,5-dioxopyrrolidin-1-yl)hexanoyl]hydrazino}-4-oxobutyl)-N-methyl-L-valyl-N-[(3R,4S,5S)-1-{(2S)-2-[(1R,2R)-3-{[(2S)-1-amino-3-(1H-indol-3-yl)-1-oxopropan-2-yl]amino}-1-methoxy-2-methyl-3-oxopropyl]pyrrolidin-1-yl}-3-methoxy-5-methyl-1-oxoheptan-4-yl]-N-methyl-L-valinamide] are within 1.5-fold of each other in “Papp (B-A)” value: 0.16 ×10⁻⁶ cm/s for the first, 0.2 ×10⁻⁶ cm/s for the second.

`CC[C@H](C)[C@@H]([C@@H](CC(=O)N1CCC[C@H]1[C@H](OC)[C@@H](C)C(=O)N[C@@H](Cc1ccc(O)cc1)C(=O)N1CCCCO1)OC)N(C)C(=O)[C@@H](NC(=O)[C@H](C(C)C)N(C)CCCCCC(=O)NCCCC[C@H](N)C(=O)O)C(C)C` [Example 127, N-(6-{[(55)-5-Amino-5-carboxypentyl]amino}-6-oxohexyl)-N-methyl-L-valyl-N-[(3R,4S,5S)-1-{(2S)-2-[(1R,2R)-3-{[(2S)-3-(4-hydroxyphenyl)-1-(1,2-oxazinan-2-yl)-1-oxopropan-2-yl]amino}-1-methoxy-2-methyl-3-oxopropyl]pyrrolidin-1-yl}-3-methoxy-5-methyl-1-oxoheptan-4-yl]-N-methyl-L-valinamide trifluoroacetate] (X1-V[Dil][Dolaproine]Y-{Oxazinan2yl(1,2)}) and `CC[C@H](C)[C@@H]([C@@H](CC(=O)N1CCC[C@H]1[C@H](OC)[C@@H](C)C(=O)N[C@@H](Cc1c[nH]c2ccccc12)C(=O)N1CCCCO1)OC)N(C)C(=O)[C@@H](NC(=O)[C@H](C(C)C)N(C)CCCCCC(=O)NCCCC[C@H](N)C(=O)O)C(C)C` [Example 115, N-(6-{[(55)-5-Amino-5-carboxypentyl]amino}-6-oxohexyl)-N-methyl-L-valyl-N-[(3R,4S,5S)-1-{(2S)-2-[(1R,2R)-3-{[(2S)-3-(1H-indol-3-yl)-1-(1,2-oxazinan-2-yl)-1-oxopropan-2-yl]amino}-1-methoxy-2-methyl-3-oxopropyl]pyrrolidin-1-yl}-3-methoxy-5-methyl-1-oxoheptan-4-yl]-N-methyl-L-valinamide trifluoroacetate] (X1-V[Dil][Dolaproine]W-{Oxazinan2yl(1,2)}) are within 1.5-fold of each other in “Papp (B-A)” value: 0.15 ×10⁻⁶ cm/s for the first, 0.2 ×10⁻⁶ cm/s for the second.

`CC[C@H](C)[C@@H]([C@@H](CC(=O)N1CCC[C@H]1[C@H](OC)[C@@H](C)C(=O)N[C@@H](Cc1c[nH]c2ccccc12)C(N)=O)OC)N(C)C(=O)[C@@H](NC(=O)[C@H](C(C)C)N(C)CCCCCCN1C(=O)CC(SC[C@H](N)C(=O)O)C1=O)C(C)C` (stereo partly drawn) [Example 74, N-[6-(3-{[(2R)-2-Amino-2-carboxyethyl]sulphanyl}-2,5-dioxopyrrolidin-1-yl)hexyl]-N-methyl-L-valyl-N-[(3R,4S,5S)-1-{(2S)-2-[(1R,2R)-3-{[(2S)-1-amino-3-(1H-indol-3-yl)-1-oxopropan-2-yl]amino}-1-methoxy-2-methyl-3-oxopropyl]pyrrolidin-1-yl}-3-methoxy-5-methyl-1-oxoheptan-4-yl]-N-methyl-L-valinamide] (X2-V[Dil][Dolaproine]W-NH2) and `CC[C@H](C)[C@@H]([C@@H](CC(=O)N1CCC[C@H]1[C@H](OC)[C@@H](C)C(=O)N[C@@H](Cc1c[nH]c2ccccc12)C(=O)NCc1ccccc1)OC)N(C)C(=O)[C@@H](NC(=O)[C@H](C(C)C)N(C)CCCC(=O)NNC(=O)CCCCCN1C(=O)CC(SC[C@H](N)C(=O)O)C1=O)C(C)C` (stereo partly drawn) [Example 77, N-(4-{2-[6-(3-{[(2R)-2-Amino-2-carboxyethyl]sulphanyl}-2,5-dioxopyrrolidin-1-yl)hexanoyl]hydrazino}-4-oxobutyl)-N-methyl-L-valyl-N-[(3R,4S,5S)-1-{(2S)-2-[(1R,2R)-3-{[(2S)-1-(benzylamino)-3-(1H-indol-3-yl)-1-oxopropan-2-yl]amino}-1-methoxy-2-methyl-3-oxopropyl]pyrrolidin-1-yl}-3-methoxy-5-methyl-1-oxoheptan-4-yl]-N-methyl-L-valinamide] are within 1.5-fold of each other in “Papp (B-A)” value: 0.5 ×10⁻⁶ cm/s for the first, 0.7 ×10⁻⁶ cm/s for the second.

Going from `CC[C@H](C)[C@@H]([C@@H](CC(=O)N1CCC[C@H]1[C@H](OC)[C@@H](C)C(=O)N[C@@H](Cc1c[nH]c2ccccc12)C(=O)O)OC)N(C)C(=O)[C@@H](NC(=O)[C@H](C(C)C)N(C)CCCCCC(=O)NCCCC[C@H](N)C(=O)O)C(C)C` [Example 116, N-(6-{[(55)-5-Amino-5-carboxypentyl]amino}-6-oxohexyl)-N-methyl-L-valyl-N-[(3R,4S,5S)-1-{(2S)-2-[(1R,2R)-3-{[(1S)-1-carboxy-2-(1H-indol-3-yl)ethyl]amino}-1-methoxy-2-methyl-3-oxopropyl]pyrrolidin-1-yl}-3-methoxy-5-methyl-1-oxoheptan-4-yl]-N-methyl-L-valinamide] (X1-V[Dil][Dolaproine]W-OH) to `CC[C@H](C)[C@@H]([C@@H](CC(=O)N1CCC[C@H]1[C@H](OC)[C@@H](C)C(=O)N[C@@]1(C(=O)N2CCCCO2)C[C@@H]1c1ccccc1)OC)N(C)C(=O)[C@@H](NC(=O)[C@H](C(C)C)N(C)CCCC(=O)NNC(=O)CCCCCN1C(=O)CC(SC[C@H](N)C(=O)O)C1=O)C(C)C` (stereo partly drawn) [Example 73, N-(4-{2-[6-(3-{[(2R)-2-Amino-2-carboxyethyl]sulphanyl}-2,5-dioxopyrrolidin-1-yl)hexanoyl]hydrazino}-4-oxobutyl)-N-methyl-L-valyl-N-[(3R,4S,5S)-3-methoxy-1-{(2S)-2-[(1R,2R)-1-methoxy-2-methyl-3-{[(1S,2R)-1-(1,2-oxazinan-2-ylcarbonyl)-2-phenylcyclopropyl]amino}-3-oxopropyl]pyrrolidin-1-yl}-5-methyl-1-oxoheptan-4-yl]-N-methyl-L-valinamide], the “Papp (B-A)” value rises from 0.1 ×10⁻⁶ cm/s to 0.25 ×10⁻⁶ cm/s (2.5-fold).
